Measured values taken from patent US20260069541A1, “COMPOSITIONS AND METHODS FOR THE DELIVERY OF ACTIVE AGENTS INCLUDING NUCLEIC ACIDS” (Ohio State Innovation Foundation, priority 2022, published 2026).

Columns and labels:
miR-21 = assay: In vitro gene regulation, RT-qPCR of miR-21 downstream genes; format: cell-based; settings: KB and A549 cells; free solution, QTsome Original or QTPlus
Method: In Vitro Gene Regulation. KB, A549, THP-1, MC38, and RAW264.7 cells were seeded at 3×10^5 cells/well in 6-well plates 24 hours prior to treatments. Cells were treated with scramble oligonucleotide or AM21 in free solution, lipofectamine, QTsome Original, and QTPlus. Total RNA was extracted using TRI reagent (Zymo Research) per manufacturer protocol. cDNA was prepared by high-capacity cDNA reverse transcription kit (Invitrogen, Waltham, MA, USA), and real-time qPCR (RT-qPCR) was done using SsoAdvanced™ Universal SYBR® Green Supermix (Bio-Rad Laboratories, Hercules, CA) on a QuantStudio 7 Flex Real-time PCR System. All the RT-qPCR primers were purchased from Sigma-Aldrich. Beta-actin (Actb) was selected as the housekeeping gene control. The relative amount of RNA level was calculated and compared according to the 2-ΔΔCt method.

A549 cells [1] = assay: Colony formation assay; format: cell-based; settings: up to 1 week
Method: Colony Formation Assay. A549 cells were seeded at 100 cells/well in 24-well plates 24 hours prior to treatments. Cells were treated with 16-mer and 20-mer AM21 in free solution and QTPlus at concentrations of 1 uM and 10 uM. Cells were allowed to form colony for up to 1-week followed with fixation by methanol and colony detection by crystal violet.

[2] = system: FLuc mRNA expression in HEK293, A549, and KB; assay: In vitro bioluminescent assay, FLuc mRNA delivery (Example 1); format: cell-based; settings: comparison of ionizable lipids (FIG. 1D) and helper lipids (FIG. 1E)
Method: In Vitro Bioluminescent Assay. HEK293, A549, and KB were seeded at 3000 cells/well in 96-well plates 24 hours prior to treatments. Cells were treated with 0.1 ug of FLuc mRNA in QTsome Original or QTPlus. Cells were allowed to uptake QTsome Original or QTPlus encapsulating mRNA overnight. The mRNA expression was determined by Bright-Glo™ Luciferase Assay System (Promega, Madison, WI).

FFLuc mRNA expression = assay: In vivo mRNA expression after IM injection (IVIS bioluminescence); set-up: species or system ICR CD-1 Swiss mice; settings: 1.5 μg per leg, two rounds combined, helper lipid in QTsome+
Text: ICR CD-1 Swiss mice were purchased from Charles River Laboratory Animals were housed in a temperature-controlled room under a 12 hr light/12 hr dark cycle and fed normal chow diet. All animal studies were reviewed and approved by the Ohio State University Institutional Laboratory Animal Care and Use Committee. Both male and female mice were used for experiments. In vivo mRNA expression was quantified by measuring firefly luciferase bioluminescence. Mice treated with IM injection of FFLuc mRNA lipid QTsome+ nanoparticles at 1.5 μg per leg were injected with luciferin intraperitonially 5 minutes prior to bioluminescence measurements. Bioluminescence images were taken by a in vivo imaging system (IVIS) under optimal exposure settings.

HEK293T cells = assay: Bright-Glo luciferase assay, FFLuc mRNA delivery by QTsome+ (Example 2); format: cell-based; settings: 10,000 HEK293T cells, 100 ng FFLuc mRNA, overnight
Method: To examine the delivery efficiency of QTsome+ lipid nanoparticles, FFLuc mRNA was selected as the reporter gene of interest to be encapsulated into different QTsome+ formulations. Bioluminescence intensity was measured by Bright-Glo luciferase kit used as the quantification of expressed firefly luciferase after mRNA transfection. We treated 10,000 HEK293T cells overnight with 100 ng FFLuc mRNA utilizing different formulations with lipofectamine 3000 as the positive control. […] Therefore, the follow-on samples were formulated at room temperature instead of 65° C. or 37° C.

[3] = TNS fluorescence assay, apparent pKa; format: physicochemical; settings: helper lipid in QTsome+, same % of DOTAP
Method: To evaluate the apparent pKa of the lipid QTsome+ nanoparticles including different combinations of lipids, 2-(p-toluidino) naphthalene-6-sulfonic acid (TNS) fluorescence assay was designed. TNS binds to positively charged lipids through electrostatic interactions and emits strong fluorescence upon excitation. A series of universal buffers (a combination of 10 mM NaCitrate, 10 mM NaPhasphate, 10 mM NaBorate, and 150 mM NaCl) with pH ranging from 3 to 12 was prepared. QTsome+ were diluted in these buffers at the final ionizable lipid (including SM-102, A066, DODMA and DOTAP) concentration of 75 μM. TNS was then added to the final concentration at 6.0 μM. pH was measured after thorough mixing of TNS and QTsome+ using a pH meter. TNS Fluorescence was obtained by transferring 200 μL of samples into a black-opaque plate in triplicate, and reading using a SpectraMax M5 plate reader with the excitation (λex) at 325 nm and the emission (Nem) at 435 nm. It was assumed that in the presence of amino lipids, TNS fluorescence reaches a maximum when 100% of the amino lipids are ionized, while TNS has little fluorescence when the amino lipids are in the un-ionized state. […]
Where FL is TNS fluorescence value, pKa is apparent pKa of the amino lipids, b is the measure of the cooperativeness of the protonation process of […].

[4] = system: A549 xenograft mouse model; assay: In vivo antitumor efficacy of QTPlus-AM21 and erlotinib, A549 xenograft; set-up: species or system nude mice; settings: A549 xenograft mice, individually or in combination
Method: Treatments were initiated once tumors reached 50-100 mm^3. […] All mice were dosed every 3 days for 5 doses. Tumor growth and body weight were monitored, and the tumor volumes were calculated according to the formula: All animal studies were reviewed and approved by The Ohio State University Institutional Laboratory Animal Care and Use Committee (IACUC). All mice were euthanized one day after the last dose to peak the immune activation and protein expression in TME.

A549 cells [5] = assay: MTS assay, cell viability and synergy with erlotinib (CompuSyn); format: cell-based; settings: fixed-ratio combination of QTPlus-AM21 and erlotinib
Method: MTS Assay. A549 cells were seeded at 3000 cells/well in 96-well plates 25 hours before treatments. […] After 72-hour treatment, cell viability was examined by CellTiter 96® AQueous One Solution (Promega, Madison, WI) per manufacturer protocol.

[6] = system: MC38 murine colorectal syngeneic model; assay: In vivo antitumor efficacy, MC38 syngeneic model; set-up: species or system C57BL/6 mice; settings: MC38 syngeneic mice, individually or in combination
Method: To evaluate the combination therapy of QTPlus-AM21 and anti-PDL I therapy, MC38 murine colorectal syngeneic model was generated by subcutaneously inoculating C57BL/6 mice (obtained from Charles River Laboratories) with 1×10^6 cells per mouse on the right flack. Treatments were initiated once tumors reached 50-100 mm^3. Mice (n=5) were intraperitoneally treated with saline, 3 mg/kg QTPlus-encapsulating scramble oligonucleotide, 3 mg/kg QTPlus-AM21, 10 mg/kg atezolizumab, and QTPlus-AM21/atezolizumab combination (3 mg/kg QTPlus-AM21 and 10 mg/kg atezolizumab).
All mice were dosed every 3 days for 5 doses. Tumor growth and body weight were monitored, and the tumor volumes were calculated according to the formula: […]
All animal studies were reviewed and approved by The Ohio State University Institutional Laboratory Animal Care and Use Committee (IACUC). All mice were euthanized one day after the last dose to peak the immune activation and protein expression in TME. Terminal Tumor growth inhibition (% TGI) was determined by the formula: […]
Flow Cytometry. […] Stained cells were analyzed using an LSR II flow cytometer in Flow Cytometry Shared Resources (FCSR) at The Ohio State University Comprehensive Cancer Center.

For “5′-A*+T*+C*A*G*+T*+C*+T*G*A*+T*A*A*G*+C*+T-3′ (ATCAGTCTGATAAGCT; chemistry not given here) [AM21]”, the “miR-21 downstream gene regulation” value (miR-21) was “Akt1 downregulation, Ddah1 upregulation, and Pdl1 upregulation” and the “Inhibition of colony formation / A549 cell growth” value (A549 cells [1]) was “superior in inhibiting A549 cell growth in vitro”.

For CCCCC/C=C\C/C=C\CCCCCCCCOCC(CN1CCCC1)OCCCCCCCC/C=C\C/C=C\CCCCC (centres unmarked) [A-066, 1-(2,3-bis(((9Z,12Z)-octadeca-9,12-dien-1-yl)oxy)propyl)pyrrolidine], the “mRNA delivery efficiency of QTPlus with different components” value [2] was “the most suitable for mRNA delivery in QTsome platform”.

With CCCCCCCC/C=C\CCCCCCCC(=O)OC[C@H](COP(=O)(O)OCCN)OC(=O)CCCCCCC/C=C\CCCCCCCC [DOPE, 1,2-dioleoyl-sn-glycero-3-phosphoethanolamine] the “In vivo delivery efficiency (FLuc expression)” value (FFLuc mRNA expression) was “rather outperformed PC-based helper lipids”, the “Bioluminescence intensity (mRNA delivery efficiency)” value (HEK293T cells) was “outperformed DOPC and DSPC” and the “mRNA delivery efficiency of QTPlus with different components” value [2] was “the most suitable as helper lipids”.

In the case of CCCCCCCCCCCCCCCCCC(=O)OC[C@H](COP(=O)([O-])OCC[N+](C)(C)C)OC(=O)CCCCCCCCCCCCCCCCC [DSPC, distearoylphosphatidylcholine], the “Apparent pKa” value [3] is reported as “lowest pKa among all”.

In the case of CCCCC/C=C\C/C=C\CCCCCCCCC(CCCCCCCC/C=C\C/C=C\CCCCC)OC(=O)CCCN(C)C [MC3, dilinoleylmethyl-4-dimethylaminobutyrate, reference compound], the “Bioluminescence intensity (mRNA delivery efficiency)” value (HEK293T cells) is reported as “slightly increased the delivery efficiency”.

For C#Cc1cccc(Nc2ncnc3cc(OCCOC)c(OCCOC)cc23)c1 [erlotinib, Erlotinib], the Body weight [4] was “No significant differences in body weight” and the “Dose reduction index (DRI)” value (A549 cells [5]) was 2.26.

In the case of “atezolizumab: an anti-PDL1 therapy, monoclonal antibody”, the Body weight [6] is reported as “No significant differences in body weight”.
